These results are taken from US20220289766A1 (INFLAZOME LIMITED, priority 2019, published 2022).

pIC50: −log10 of the molar value. Structures can show the parent of a compound that is named as a salt. Some results are limits rather than exact numbers.

Test [1] has as its target T1, NLRP3 (Homo sapiens, UniProt Q96P20). As to the kind of experiment: THP-1 cells pyroptosis assay. The class given is cell-based. Details: Seed THP-1 cells (25,000 cells/well) containing 1.0 μg/ml LPS in 40 μl of RPMI medium; host or cells: THP-1 cells. The settings on record: LPS 1 μg/ml, compound 3 hrs, nigericin 5 μM 1 hr, resazurin readout. How it is done:
THP-1 cells (ATCC #TIB-202) were grown in RPMI containing L-glutamine (Gibco #11835) supplemented with 1 mM sodium pyruvate (Sigma #S8636) and penicillin (100 units/ml)/streptomycin (0.1 mg/ml) (Sigma #P4333) in 10% Fetal Bovine Serum (FBS) (Sigma #F0804). The cells were routinely passaged and grown to confluency (˜10^6 cells/ml). On the day of the experiment, THP-1 cells were harvested and resuspended into RPMI medium (without FBS). The cells were then counted and viability ([…]) checked by Trypan blue (Sigma #T8154). Appropriate dilutions were made to give a concentration of 625,000 cells/ml. To this diluted cell solution was added LPS (Sigma #L4524) to give a 1 μg/ml Final Assay Concentration (FAC). 40 μl of the final preparation was aliquoted into each well of a 96-well plate. The plate thus prepared was used for compound screening.
The following method step-by-step assay was followed for compound screening. • 1. Seed THP-1 cells (25,000 cells/well) containing 1.0 μg/ml LPS in 40 μl of RPMI medium (without FBS) in 96-well, black walled, clear bottom cell culture plates coated with poly-D-lysine (VWR #734-0317) • 2. Add 5 μl compound (8 points half-log dilution, with 10 μM top dose) or vehicle (DMSO 0.1% FAC) to the appropriate wells • 3. Incubate for 3 hrs at 37° C., 5% CO2 • 4. Add 5 μl nigericin (Sigma #N7143) (FAC 5 μM) to all wells • 5. Incubate for 1 hr at 37° C., 5% CO2 • 6. At the end of the incubation period, spin plates at 300×g for 3 mins and remove supernatant • 7. Then add 50 μl of resazurin (Sigma #R7017) (FAC 100 μM resazurin in RPMI medium without FBS) and incubate plates for a further 1-2 hrs at 37° C. and 5% CO2 • 8. Plates were read in an Envision reader at Ex 560 nm and Em 590 nm • 9. IC50 data is fitted to a non-linear regression equation (log inhibitor vs response-variable slope 4-parameters)
Background: The colour change of resazurin is a common sign of viable cells or microbes.

Test [2] addresses T1, NLRP3. As to the kind of experiment: Human whole blood IL-1β release assay. The class given is cell-based. Details: Plate out 80 μl of whole blood containing 1 μg/ml of LPS in 96-well, clear bottom cell culture plate; from tissue; host or cells: human whole blood from healthy donors. The settings on record: LPS 1 μg/ml, compound 3 hrs, nigericin 10 μM 1 hr, IL-1β by AlphaLisa, read-out: HWB IC50. As for the experimental part: For systemic delivery, the ability to inhibit NLRP3 when the compounds are present within the bloodstream is of great importance. For this reason, the NLRP3 inhibitory activity of a number of compounds in human whole blood was investigated in accordance with the following protocol.
Human whole blood in Li-heparin tubes was obtained from healthy donors from a volunteer donor panel. • 1. Plate out 80 μl of whole blood containing 1 μg/ml of LPS in 96-well, clear bottom cell culture plate (Corning #3585) • 2. Add 10 μl compound (8 points half-log dilution with 10 μM top dose) or vehicle (DMSO 0.1% FAC) to the appropriate wells • 3. Incubate for 3 hrs at 37° C., 5% CO2 • 4. Add 10 μl nigericin (Sigma #N7143) (10 μM FAC) to all wells • 5. Incubate for 1 hr at 37° C., 5% CO2 • 6. At the end of the incubation period, spin plates at 300×g for 5 mins to pellet cells and remove […] of supernatant and add to 96-well v-bottom plates for IL-1β analysis (note: these plates containing the supernatants can be stored at −80° C. to be analysed at a later date) • 7. IL-1β was measured according to the manufacturer protocol (Perkin Elmer-AlphaLisa IL-1 Kit AL220F-5000) • 8. IC50 data is fitted to a non-linear regression equation (log inhibitor vs response-variable slope 4-parameters)
Background: Bead proximity is the source of the signal in Alpha formats.

T1 sequence (Q96P20 whole entry): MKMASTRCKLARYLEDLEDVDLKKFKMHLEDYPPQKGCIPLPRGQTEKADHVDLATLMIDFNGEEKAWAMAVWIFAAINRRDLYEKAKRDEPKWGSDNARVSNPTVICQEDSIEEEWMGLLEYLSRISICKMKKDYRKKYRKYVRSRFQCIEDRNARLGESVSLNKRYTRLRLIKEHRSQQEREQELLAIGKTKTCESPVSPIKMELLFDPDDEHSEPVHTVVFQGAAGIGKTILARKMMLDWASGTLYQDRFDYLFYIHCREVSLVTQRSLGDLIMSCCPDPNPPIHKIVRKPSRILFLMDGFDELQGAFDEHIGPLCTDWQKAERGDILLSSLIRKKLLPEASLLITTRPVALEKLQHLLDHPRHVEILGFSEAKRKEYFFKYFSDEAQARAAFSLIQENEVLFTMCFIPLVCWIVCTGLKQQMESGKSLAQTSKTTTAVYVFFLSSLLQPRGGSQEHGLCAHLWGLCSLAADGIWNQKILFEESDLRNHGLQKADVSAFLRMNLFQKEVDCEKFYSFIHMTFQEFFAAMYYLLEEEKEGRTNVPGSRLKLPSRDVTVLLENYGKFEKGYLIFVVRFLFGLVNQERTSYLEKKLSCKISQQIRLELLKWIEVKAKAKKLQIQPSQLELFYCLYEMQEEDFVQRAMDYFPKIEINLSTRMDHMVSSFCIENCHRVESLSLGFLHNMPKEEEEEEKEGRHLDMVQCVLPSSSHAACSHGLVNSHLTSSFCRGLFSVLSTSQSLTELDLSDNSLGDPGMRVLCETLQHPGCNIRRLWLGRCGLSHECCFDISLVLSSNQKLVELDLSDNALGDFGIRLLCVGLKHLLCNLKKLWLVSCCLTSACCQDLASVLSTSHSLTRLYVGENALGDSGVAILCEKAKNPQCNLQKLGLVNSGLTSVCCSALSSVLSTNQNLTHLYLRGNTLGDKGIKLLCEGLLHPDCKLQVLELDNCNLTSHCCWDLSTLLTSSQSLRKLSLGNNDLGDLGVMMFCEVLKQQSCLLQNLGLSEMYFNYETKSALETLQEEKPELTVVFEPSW

As to `O=C1Nc2c(ccc3c2CCC3)-c2ccnc(c2)OCCc2cccc(c2)S(=O)(=O)N1` [Example 31, 22-oxa-14λ^6-thia-11,13,24-triaza-pentacyclo-[21.3.1.1^15,19.0^2,10.0^5,9]-octacosa-1(26),2,4,9,15(28),16,18,23(27),24-nonaene-12,14,14-trione, sodium salt], the pIC50 at NLRP3 [1] was ≥ 7.00; at NLRP3 [2], 6.30 to 7.00.

As for `CC1(C)COc2nccc(c2F)-c2ccc3c(c2NC(=O)NS(=O)(=O)c2ccn1n2)CCC3` [Example 32, 26-fluoro-19,19-dimethyl-21-oxa-14λ^6-thia-11,13,18,23,27-pentaaza-pentacyclo[20.3.1.1^15,18.0^2,10.0^5,9]-heptacosa-1(26),2,4,9,15(27),16,22,24-octaene-12,14,14-trione, sodium salt], the pIC50 on NLRP3 [1] and on NLRP3 [2] was 6.30 to 7.00 throughout.

For `Cc1cnc2cc1-c1ccc3c(c1NC(=O)NS(=O)(=O)c1ccn(n1)C(C)(C)CO2)CCC3` [Example 33, 19,19,25-trimethyl-21-oxa-14λ^6-thia-11,13,18,23,27-pentaaza-pentacyclo-[20.3.1.1^15,18.0^2,10.0^5,9]-heptacosa-1(26),2,4,9,15(27),16,22,24-octaene-12,14,14-trione, sodium salt], the pIC50 is 6.00 to 6.30 against NLRP3 [1] and 5.30 to 6.00 at NLRP3 [2].

Regarding `CC1(C)COc2cc(ccn2)-c2c(F)cc3c(c2NC(=O)NS(=O)(=O)c2ccn1n2)CCC3` [Example 34, 3-fluoro-19,19-dimethyl-21-oxa-14λ^6-thia-11,13,18,23,27-pentaazapentacyclo-[20.3.1.1^15,18.0^2,10.0^5,9]heptacosa-1(25),2,4,9,15(27),16,22(26),23-octaene-12,14,14-trione], the pIC50 was ≥ 7.00 against NLRP3 [1] and 6.30 to 7.00 at NLRP3 [2].

As to `Cc1cc2cc(n1)OCC(C)(C)n1ccc(n1)S(=O)(=O)NC(=O)Nc1c-2ccc2c1CCC2` [Example 36, 19,19,24-trimethyl-21-oxa-14λ^6-thia-11,13,18,23,27-pentaazapentacyclo-[20.3.1.1^15,18.0^2,10.0^5,9]heptacosa-1(26),2,4,9,15(27),16,22,24-octaene-12,14,14-trione], the pIC50 on NLRP3 [1] was ≥ 7.00; on NLRP3 [2], 6.00 to 6.30.

Turning to `Cc1cc2c(c3c1-c1ccnc(c1)OCC(C)(C)n1ccc(n1)S(=O)(=O)NC(=O)N3)CCO2` [Example 37, 3,19,19-trimethyl-6,21-dioxa-14λ^6-thia-11,13,18,23,27-pentaaza-pentacyclo[20.3.1.1^15,18.0^2,10.0^5,9]-heptacosa-1(25),2(10),3,5(9),15(27),16,22(26),23-octaene-12,14,14-trione, sodium salt], the pIC50 against NLRP3 [1] and at NLRP3 [2] was ≥ 7.00 each time.

Regarding `CC1(C)COc2cc(c(F)cn2)-c2ccc3c(c2NC(=O)NS(=O)(=O)c2ccn1n2)CCC3` [Example 38, 25-fluoro-19,19-dimethyl-21-oxa-14λ^6-thia-11,13,18,23,27-pentaaza-pentacyclo[20.3.1.1^15,18.0^2,10.0^5,9]-heptacosa-1(25),2,4,9,15(27),16,22(26),23-octaene-12,14,14-trione, sodium salt], the pIC50 against NLRP3 [1] is 6.30 to 7.00; at NLRP3 [2], 5.30 to 6.00.

Regarding `O=C1Nc2c(ccc3c2CCC3)-c2ccnc(c2)OCC2(CCOCC2)n2ccc(n2)S(=O)(=O)N1` [Example 39, 21′-oxa-14′λ^6-thia-11′,13′,18′,23′,27′-pentaaza-spiro[oxane-4,19′-pentacyclo-[20.3.1.1^15,18.0^2,10.0^5,9]-heptacosan]-1′(25′),2′,4′,9′,15′(27′),16′,22′(26′),23′-octaene-12′,14′,14′-trione], the pIC50 against NLRP3 [1] was ≥ 7.00; at NLRP3 [2], 6.30 to 7.00.

Consider `O=C1Nc2c3c(cc(F)c2-c2ccnc(c2)OCCn2cc(F)c(n2)S(=O)(=O)N1)CCC3` [Example 40, 3,16-difluoro-21-oxa-14λ^6-thia-11,13,18,23,27-pentaaza-pentacyclo[20.3.1.1^15,18.0^2,10.0^5,9]-heptacosa-1(25),2(10),3,5(9),15(27),16,22(26),23-octaene-12,14,14-trione], for which the pIC50 was ≥ 7.00 against NLRP3 [1] and 6.30 to 7.00 at NLRP3 [2].

Turning to `CC1(C)COc2cc(ccn2)-c2c(F)cc3c(c2NC(=O)NS(=O)(=O)c2nn1cc2F)CCC3` [Example 41, 3,16-difluoro-19,19-dimethyl-21-oxa-14λ^6-thia-11,13,18,23,27-pentaazapentacyclo-[20.3.1.1^15,18.0^2,10.0^5,9]heptacosa-1(25),2,4,9,15(27),16,22(26),23-octaene-12,14,14-trione, sodium salt], the pIC50 is ≥ 7.00 against NLRP3 [1] and 6.30 to 7.00 at NLRP3 [2].

`O=C1Nc2c(ccc3c2CCC3)-c2cc(F)nc(c2)OCCn2cc(F)c(n2)S(=O)(=O)N1` [Example 42, 16,24-difluoro-21-oxa-14λ^6-thia-11,13,18,23,27-pentaazapentacyclo-[20.3.1.1^15,18.0^2,10.0^5,9]heptacosa-1(26),2,4,9,15(27),16,22,24-octaene-12,14,14-trione]: the values for the pIC50 at NLRP3 [1] and on NLRP3 [2] were ≥ 7.00 and 6.30 to 7.00, respectively.

Take `CC(C)c1cc(F)cc2c1NC(=O)NS(=O)(=O)c1ccn(n1)C(C)(C)COc1cc-2ccn1` [Example 43, 4-fluoro-16,16-dimethyl-6-(propan-2-yl)-18-oxa-11λ^6-thia-8,10,15,20,24-pentaazatetracyclo-[17.3.1.1^12,15.0^2,7]tetracosa-1(22),2(7),3,5,12(24),13,19(23),20-octaene-9,11,11-trione]: the pIC50 against NLRP3 [1] and on NLRP3 [2] was 6.30 to 7.00 each time.

Take `CC(C)c1cc(F)cc2c1NC(=O)NS(=O)(=O)c1nn(cc1F)CCOc1cc-2ccn1` [Example 44, 4,13-difluoro-6-(propan-2-yl)-18-oxa-11λ^6-thia-8,10,15,20,24-pentaazatetracyclo[17.3.1.1^12,15.0^2,7]-tetracosa-1(22),2(7),3,5,12(24),13,19(23),20-octaene-9,11,11-trione, sodium salt]: the pIC50 at NLRP3 [1] is ≥ 7.00; on NLRP3 [2] it was 6.30 to 7.00.

Regarding `Cc1c2ccnc1OCC(C)(C)n1ccc(n1)S(=O)(=O)NC(=O)Nc1c-2ccc2c1CCC2` [Example 45, 19,19,26-trimethyl-21-oxa-14λ^6-thia-11,13,18,23,27-pentaaza-pentacyclo[20.3.1.1^15,18.0^2,10.0^5,9]-heptacosa-1(25),2,4,9,15(27),16,22(26),23-octaene-12,14,14-trione, sodium salt], the pIC50 against NLRP3 [1] and at NLRP3 [2] was 5.30 to 6.00 each time.

For `O=C1Nc2c(ccc3c2CCC3)-c2ccnc(c2)OC2CCC(C2)Cn2ccc(n2)S(=O)(=O)N1` (centres unmarked) [Example 46, 24-oxa-14λ^6-thia-11,13,18,26,31-pentaazahexacyclo-[23.3.1.1^15,18.1^20,23.0^2,10.0^5,9]hentriaconta-1(28),2,4,9,15(31),16,25(29),26-octaene-12,14,14-trione], the pIC50 against NLRP3 [1] and on NLRP3 [2] was 5.30 to 6.00 each time.

Take `CC(C)c1cnn2c1NC(=O)NS(=O)(=O)c1nn(cc1F)C(C)(C)COc1cc-2ccn1` [Example 47, 12-fluoro-15,15-dimethyl-5-(propan-2-yl)-17-oxa-10λ^6-thia-2,3,7,9,14,19,23-heptaazatetracyclo-[16.3.1.1^11,14.0^2,6]tricosa-1(21),3,5,11(23),12,18(22),19-heptaene-8,10,10-trione]: the pIC50 on NLRP3 [1] and at NLRP3 [2] was 6.00 to 6.30 each time.

As usually defined, the pIC50 is −log10 of the IC50, conventionally taken in molar units.
